Key:
[1] = Effect on forskolin stimulated adenylate cyclase activity at 5-hydroxytryptamine 1A receptor of guinea pig hippocampus.
[2] = Binding affinity against 5-hydroxytryptamine 1A receptor
[3] = Effect on forskolin stimulated adenylate cyclase activity at 5-hydroxytryptamine 1A receptor of guinea pig hippocampus.; remark: listed apart in the source

Structure (SMILES)	IC50 [1] [µM]	IC50 [2] [µM]	EC50 [3] [µM]
COc1ccc2[nH]cc(C[C@@H]3CCCN3C)c2c1 [5-Methoxy-3-((S)-1-methyl-pyrrolidin-2-ylmethyl)-1H-indole]	0.14	–	–
COc1ccc2[nH]cc(C[C@H]3CCCN3C)c2c1 [5-Methoxy-3-((R)-1-methyl-pyrrolidin-2-ylmethyl)-1H-indole]	–	0.01	0.035
